Laboratory results reported in ChEMBL document CHEMBL4673372, “1,2,3-triazole-thiazole hybrids: Synthesis, in vitro antimicrobial activity and antibiofilm studies” (Bioorg Med Chem Lett, 2021).
Values after ≈ are worked out from the molar mass of the structure shown. One block for each compound: values may come before it.

Experiments:
[1] = test system: Candida albicans; test: Fungicidal activity against Candida albicans MTCC 183; type: functional
[2] = test system: Bacillus subtilis; test: Inhibition of biofilm formation in Bacillus subtilis MTCC 121 incubated for 24 hrs by crystal violet staining based microtiter plate method; type: functional, organism-based
[3] = test system: [Candida] aaseri; test: Fungicidal activity against Candida aaseri MTCC 1962; type: functional; conditions: Yamadazyma aaseri
[4] = test system: Candida albicans; test: Antifungal activity against Candida albicans MTCC 227; type: functional
[5] = test system: Candida albicans; test: Inhibition of biofilm formation in Candida albicans MTCC 3017 incubated for 24 hrs by crystal violet staining based microtiter plate method; type: functional, organism-based; conditions: Candida albicans, MTCC 3017, 24 h; read-out: IC50
[6] = test system: Candida albicans; test: Fungicidal activity against Candida albicans MTCC 227; type: functional
[7] = test system: Staphylococcus aureus; test: Inhibition of biofilm formation in Staphylococcus aureus MLS16 MTCC 2940 incubated for 24 hrs by crystal violet staining based microtiter plate method; type: functional, organism-based
[8] = test system: Nakaseomyces glabratus; test: Antifungal activity against Candida glabrata MTCC 3019; type: functional
[9] = test system: Candida albicans; test: Antifungal activity against Candida albicans MTCC 183; type: functional
[10] = test system: Nakaseomyces glabratus; test: Fungicidal activity against Candida glabrata MTCC 3019; type: functional
[11] = test system: Candida albicans; test: Fungicidal activity against Candida albicans MTCC 3958; type: functional
[12] = test system: Candida albicans; test: Antifungal activity against Candida albicans MTCC 854; type: functional
[13] = test system: [Candida] aaseri; test: Antifungal activity against Candida aaseri MTCC 1962; type: functional; conditions: Yamadazyma aaseri
[14] = test system: Candida albicans; test: Antifungal activity against Candida albicans MTCC 3958; type: functional
[15] = test system: Candida parapsilosis; test: Fungicidal activity against Candida parapsilosis MTCC 1745; type: functional; conditions: Lodderomyces parapsilosis
[16] = test system: Candida albicans; test: Antifungal activity against Candida albicans MTCC 1637; type: functional
[17] = test system: Escherichia coli; test: Inhibition of biofilm formation in Escherichia coli MTCC 739 incubated for 24 hrs by crystal violet staining based microtiter plate method; type: functional, organism-based
[18] = test system: Candida albicans; test: Fungicidal activity against Candida albicans MTCC 854; type: functional
[19] = test system: Candida parapsilosis; test: Antifungal activity against Candida parapsilosis MTCC 1745; type: functional; conditions: Lodderomyces parapsilosis
[20] = test system: Pichia sporocuriosa; test: Antifungal activity against Issatchenkia hanoiensis MTCC 4755; type: functional
[21] = test system: Candida albicans; test: Antifungal activity against Candida albicans MTCC 3018; type: functional
[22] = test system: Micrococcus luteus; test: Inhibition of biofilm formation in Micrococcus luteus MTCC 2470 incubated for 24 hrs by crystal violet staining based microtiter plate method; type: functional, organism-based
[23] = test system: Candida albicans; test: Fungicidal activity against Candida albicans MTCC 4748; type: functional
[24] = test system: Candida albicans; test: Fungicidal activity against Candida albicans MTCC 1637; type: functional
[25] = test system: Pichia kudriavzevii; test: Antifungal activity against Candida krusei MTCC 3020; type: functional
[26] = test system: Candida albicans; test: Antifungal activity against Candida albicans MTCC 4748; type: functional
[27] = test system: Pseudomonas aeruginosa; test: Inhibition of biofilm formation in Pseudomonas aeruginosa MTCC 2453 incubated for 24 hrs by crystal violet staining based microtiter plate method; type: functional, organism-based
[28] = test system: Raoultella planticola; test: Inhibition of biofilm formation in Klebsiella planticola MTCC 530 incubated for 24 hrs by crystal violet staining based microtiter plate method; type: functional, organism-based
[29] = test system: Staphylococcus aureus; test: Inhibition of biofilm formation in Staphylococcus aureus […] incubated for 24 hrs by crystal violet staining based microtiter plate method; type: functional, organism-based
[30] = test system: Pichia sporocuriosa; test: Fungicidal activity against Issatchenkia hanoiensis MTCC 4755; type: functional
[31] = test system: Pichia kudriavzevii; test: Fungicidal activity against Candida krusei MTCC 3020; type: functional
[32] = test system: Candida albicans; test: Fungicidal activity against Candida albicans MTCC 3018; type: functional
[33] = test system: Staphylococcus aureus; test: Bactericidal activity against Staphylococcus aureus MTCC 96; type: functional
[34] = test system: Raoultella planticola; test: Bactericidal activity against Klebsiella planticola MTCC 530; type: functional
[35] = test system: Staphylococcus aureus; test: Antibacterial activity against Staphylococcus aureus MLS16 MTCC 2940 assessed as inhibition of bacterial growth by microtiter broth dilution method; type: functional
[36] = test system: Pseudomonas aeruginosa; test: Bactericidal activity against Pseudomonas aeruginosa MTCC 2453; type: functional
[37] = test system: Escherichia coli; test: Antibacterial activity against Escherichia coli MTCC 739 assessed as inhibition of bacterial growth by microtiter broth dilution method; type: functional
[38] = test system: Bacillus subtilis; test: Antibacterial activity against Bacillus subtilis MTCC 121 assessed as inhibition of bacterial growth by microtiter broth dilution method; type: functional
[39] = test system: Micrococcus luteus; test: Antibacterial activity against Micrococcus luteus MTCC 2470 assessed as inhibition of bacterial growth by microtiter broth dilution method; type: functional
[40] = test system: Raoultella planticola; test: Antibacterial activity against Klebsiella planticola MTCC 530 assessed as inhibition of bacterial growth by microtiter broth dilution method; type: functional
[41] = test system: Staphylococcus aureus; test: Bactericidal activity against Staphylococcus aureus MLS16 MTCC 2940; type: functional
[42] = test system: Pseudomonas aeruginosa; test: Antibacterial activity against Pseudomonas aeruginosa MTCC 2453 assessed as inhibition of bacterial growth by microtiter broth dilution method; type: functional
[43] = test system: THP-1; test: Cytotoxicity against human THP-1 cells assessed as reduction in cell viability at 200 uM by MTT assay; type: cell-based; conditions: thp-1, 200 µM
[44] = test system: THP-1; test: Cytotoxicity against human THP-1 cells assessed as cell damage at 200 uM by LDH assay; type: cell-based; conditions: thp-1, 200 µM
[45] = test system: Bacillus subtilis; test: Bactericidal activity against Bacillus subtilis MTCC 121; type: functional
[46] = Selectivity index, ratio of CC50 for human THP-1 cells to MIC for Staphylococcus aureus MTCC 96; type: toxicity
[47] = test system: Staphylococcus aureus; test: Antibacterial activity against Staphylococcus aureus MTCC 96 assessed as inhibition of bacterial growth by microtiter broth dilution method; type: functional
[48] = test system: Escherichia coli; test: Bactericidal activity against Escherichia coli MTCC 739; type: functional
[49] = test system: Micrococcus luteus; test: Bactericidal activity against Micrococcus luteus MTCC 2470; type: functional
[50] = Cytotoxicity against human THP-1 cells; type: cell-based

MIC [4]: 18.7 µM (≈ 7.78 µg/mL)
MIC [8]: 18.7 µM (≈ 7.78 µg/mL)
MIC [9]: 18.7 µM (≈ 7.78 µg/mL)
MIC [12]: 18.7 µM (≈ 7.78 µg/mL)
MIC [13]: 18.7 µM (≈ 7.78 µg/mL)
MIC [14]: 18.7 µM (≈ 7.78 µg/mL)
MIC [16]: 18.7 µM (≈ 7.78 µg/mL)
MIC [19]: 18.7 µM (≈ 7.78 µg/mL)
MIC [20]: 18.7 µM (≈ 7.78 µg/mL)
MIC [21]: 18.7 µM (≈ 7.78 µg/mL)
MIC [25]: 18.7 µM (≈ 7.78 µg/mL)
MIC [26]: 18.7 µM (≈ 7.78 µg/mL)
Structure (SMILES): Clc1ccc(COC(Cn2ccnc2)c2ccc(Cl)cc2Cl)c(Cl)c1 (stereo not given) [MICONAZOLE]
MFC [1]: 18.7 µM (≈ 7.78 µg/mL)
IC50 [2]: Not Active
MFC [3]: 18.7 µM (≈ 7.78 µg/mL)
IC50 [5]: 2.5 µM
MFC [6]: 18.7 µM (≈ 7.78 µg/mL)
IC50 [7]: Not Active
MFC [10]: 18.7 µM (≈ 7.78 µg/mL)
MFC [11]: 18.7 µM (≈ 7.78 µg/mL)
MFC [15]: 18.7 µM (≈ 7.78 µg/mL)
IC50 [17]: Not Active
MFC [18]: 18.7 µM (≈ 7.78 µg/mL)
IC50 [22]: Not Active
MFC [23]: 18.7 µM (≈ 7.78 µg/mL)
MFC [24]: 18.7 µM (≈ 7.78 µg/mL)
IC50 [27]: Not Active
IC50 [28]: Not Active
IC50 [29]: Not Active
MFC [30]: 18.7 µM (≈ 7.78 µg/mL)
MFC [31]: 18.7 µM (≈ 7.78 µg/mL)
MFC [32]: 18.7 µM (≈ 7.78 µg/mL)

MIC [35]: 5.9 µM (≈ 3.89 µg/mL)
MIC [4]: > 190 µM
MIC [8]: 5.9 µM (≈ 3.89 µg/mL)
MIC [9]: 11.8 µM (≈ 7.78 µg/mL)
MIC [37]: 5.9 µM (≈ 3.89 µg/mL)
MIC [38]: 5.9 µM (≈ 3.89 µg/mL)
MIC [12]: > 190 µM
MIC [39]: 5.9 µM (≈ 3.89 µg/mL)
MIC [13]: 5.9 µM (≈ 3.89 µg/mL)
MIC [14]: > 190 µM
MIC [42]: 5.9 µM (≈ 3.89 µg/mL)
MIC [16]: 5.9 µM (≈ 3.89 µg/mL)
MIC [19]: > 190 µM
MIC [20]: > 190 µM
MIC [21]: 5.9 µM (≈ 3.89 µg/mL)
MIC [25]: > 190 µM
MIC [26]: > 190 µM
MIC [47]: 5.9 µM (≈ 3.89 µg/mL)
Structure (SMILES): COc1ccc(-n2cc(COc3ccc(/C=N/Nc4nc(-c5cc6cc(Br)cc(OC)c6oc5=O)cs4)cc3)nn2)cc1
MFC [1]: 23.7 µM (≈ 15.6 µg/mL)
IC50 ([2]; Bacillus subtilis, MTCC 121, 24 h, read-out: IC50): 15.9 µM
MBC [33]: 11.8 µM (≈ 7.78 µg/mL)
MFC [3]: 11.8 µM (≈ 7.78 µg/mL)
MBC [34]: 5.9 µM (≈ 3.89 µg/mL)
MBC [36]: 11.8 µM (≈ 7.78 µg/mL)
IC50 [5]: 40.6 µM
IC50 [7]: Not Active
MFC [10]: 11.8 µM (≈ 7.78 µg/mL)
MIC [40]: 2.8 µM (≈ 1.85 µg/mL)
MBC [41]: 11.8 µM (≈ 7.78 µg/mL)
IC50 ([17]; Escherichia coli, MTCC 739, 24 h, read-out: IC50): 21.9 µM
IC50 ([22]; Micrococcus luteus, MTCC 2470, 24 h, read-out: IC50): 47.8 µM
MFC [24]: 11.8 µM (≈ 7.78 µg/mL)
Activity [43]: Toxic
Activity [44]: Toxic
MBC [45]: 11.8 µM (≈ 7.78 µg/mL)
selectivity ratio [46]: 5.14
IC50 ([27]; Pseudomonas aeruginosa, MTCC 2453, 24 h, read-out: IC50): 24.7 µM
IC50 ([28]; Klebsiella planticola, MTCC 530, 24 h, read-out: IC50): 22.2 µM
MBC [48]: 11.8 µM (≈ 7.78 µg/mL)
IC50 ([29]; Staphylococcus aureus, MTCC 92, 24 h, read-out: IC50): 12 µM
MBC [49]: 11.8 µM (≈ 7.78 µg/mL)
CC50 [50]: 30.3 µM
MFC [32]: 11.8 µM (≈ 7.78 µg/mL)
